Source: publication PMC8333425, “Discovery of a dual Ras and ARF6 inhibitor from a GPCR endocytosis screen” (Nature Communications, 2021)

Assays:
Experiment in all cases: KINOMEscan kinase binding assay
[1] = target: T1, 384 kinases from the human genome (Homo sapiens, UniProt Q8NFD2); details: kinase ANKK1 (Entrez ANKK1)
T1 construct: purchased Eurofin/DiscoverX
Outline: (§1)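 Competition binding (KINOMEscan) across 384 human kinases with compound at 10 µM. Ligand binding was expressed relative to DMSO (100%) as the average of duplicates from one experiment. S(10) selectivity score was derived.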

[2] = target: T2, 384 kinases from the human genome (Homo sapiens, UniProt O14733); details: kinase MKK7 (Entrez MAP2K7)
T2 construct: purchased Eurofin/DiscoverX
Outline: as §1

[3] = target: T3, 384 kinases from the human genome (Homo sapiens, UniProt Q56UN5); details: kinase YSK4 (Entrez MAP3K19)
T3 construct: purchased Eurofin/DiscoverX
Outline: as §1

[4] = target: T4, 384 kinases from the human genome (Homo sapiens, UniProt O15530); details: kinase PDPK1 (Entrez PDPK1)
T4 construct: purchased Eurofin/DiscoverX
Outline: as §1

[5] = target: T5, 384 kinases from the human genome (Homo sapiens, UniProt P49674); details: kinase CSNK1E (Entrez CSNK1E)
T5 construct: purchased Eurofin/DiscoverX
Outline: as §1

[6] = target: T6, 384 kinases from the human genome (Homo sapiens, UniProt Q9BUB5); details: kinase MKNK1 (Entrez MKNK1)
T6 construct: purchased Eurofin/DiscoverX
Outline: as §1

[7] = target: T7, 384 kinases from the human genome (Homo sapiens, UniProt P49137); details: kinase MAPKAPK2 (Entrez MAPKAPK2)
T7 construct: purchased Eurofin/DiscoverX
Outline: as §1

[8] = target: T8, 384 kinases from the human genome (Homo sapiens, UniProt Q05397); details: kinase FAK (Entrez PTK2)
T8 construct: purchased Eurofin/DiscoverX
Outline: as §1

[9] = target: T9, 384 kinases from the human genome (Homo sapiens, UniProt Q14164); details: kinase IKK-epsilon (Entrez IKBKE)
T9 construct: purchased Eurofin/DiscoverX
Outline: as §1

[10] = target: T10, 384 kinases from the human genome (Homo sapiens, UniProt Q8IYT8); details: kinase ULK2 (Entrez ULK2)
T10 construct: purchased Eurofin/DiscoverX
Outline: as §1

[11] = target: T11, 384 kinases from the human genome (Homo sapiens, UniProt P53355); details: kinase DAPK1 (Entrez DAPK1)
T11 construct: purchased Eurofin/DiscoverX
Outline: as §1

[12] = target: T12, 384 kinases from the human genome (Homo sapiens, UniProt O14920); details: kinase IKK-beta (Entrez IKBKB)
T12 construct: purchased Eurofin/DiscoverX
Outline: as §1

[13] = target: T13, 384 kinases from the human genome (Homo sapiens, UniProt Q09013); details: kinase DMPK (Entrez DMPK)
T13 construct: purchased Eurofin/DiscoverX
Outline: as §1

[14] = target: T14, 384 kinases from the human genome (Homo sapiens, UniProt Q15375); details: kinase EPHA7 (Entrez EPHA7)
T14 construct: purchased Eurofin/DiscoverX
Outline: as §1

[15] = target: T15, 384 kinases from the human genome (Homo sapiens, UniProt P0C264); details: kinase SgK110 (Entrez SgK110)
T15 construct: purchased Eurofin/DiscoverX
Outline: as §1

[16] = target: T16, 384 kinases from the human genome (Homo sapiens, UniProt Q9NRM7); details: kinase LATS2 (Entrez LATS2)
T16 construct: purchased Eurofin/DiscoverX
Outline: as §1

[17] = target: T17, 384 kinases from the human genome (Homo sapiens, UniProt P54764); details: kinase EPHA4 (Entrez EPHA4)
T17 construct: purchased Eurofin/DiscoverX
Outline: as §1

[18] = target: T18, 384 kinases from the human genome (Homo sapiens, UniProt O75716); details: kinase STK16 (Entrez STK16)
T18 construct: purchased Eurofin/DiscoverX
Outline: as §1

[19] = target: T19, 384 kinases from the human genome (Homo sapiens, UniProt P31152); details: kinase ERK4 (Entrez MAPK4)
T19 construct: purchased Eurofin/DiscoverX
Outline: as §1

[20] = target: T20, 384 kinases from the human genome (Homo sapiens, UniProt Q9H2G2); details: kinase SLK (Entrez SLK)
T20 construct: purchased Eurofin/DiscoverX
Outline: as §1

[21] = target: T21, 384 kinases from the human genome (Homo sapiens, UniProt Q9UQM7); details: kinase CAMK2A (Entrez CAMK2A)
T21 construct: purchased Eurofin/DiscoverX
Outline: as §1

[22] = target: T22, 384 kinases from the human genome (Homo sapiens, UniProt Q13131); details: kinase AMPK-alpha1 (Entrez PRKAA1)
T22 construct: purchased Eurofin/DiscoverX
Outline: as §1

[23] = target: T23, 384 kinases from the human genome (Homo sapiens, UniProt Q9Y6E0); details: kinase MST3 (Entrez STK24)
T23 construct: purchased Eurofin/DiscoverX
Outline: as §1

[24] = target: T24, 384 kinases from the human genome (Homo sapiens, UniProt Q16584); details: kinase MLK3 (Entrez MAP3K11)
T24 construct: purchased Eurofin/DiscoverX
Outline: as §1

[25] = target: T25, 384 kinases from the human genome (Homo sapiens, UniProt O96013); details: kinase PAK4 (Entrez PAK4)
T25 construct: purchased Eurofin/DiscoverX
Outline: as §1

[26] = target: T26, 384 kinases from the human genome (Homo sapiens, UniProt P42679); details: kinase CTK (Entrez MATK)
T26 construct: purchased Eurofin/DiscoverX
Outline: as §1

T22 sequence (Q13131 whole entry): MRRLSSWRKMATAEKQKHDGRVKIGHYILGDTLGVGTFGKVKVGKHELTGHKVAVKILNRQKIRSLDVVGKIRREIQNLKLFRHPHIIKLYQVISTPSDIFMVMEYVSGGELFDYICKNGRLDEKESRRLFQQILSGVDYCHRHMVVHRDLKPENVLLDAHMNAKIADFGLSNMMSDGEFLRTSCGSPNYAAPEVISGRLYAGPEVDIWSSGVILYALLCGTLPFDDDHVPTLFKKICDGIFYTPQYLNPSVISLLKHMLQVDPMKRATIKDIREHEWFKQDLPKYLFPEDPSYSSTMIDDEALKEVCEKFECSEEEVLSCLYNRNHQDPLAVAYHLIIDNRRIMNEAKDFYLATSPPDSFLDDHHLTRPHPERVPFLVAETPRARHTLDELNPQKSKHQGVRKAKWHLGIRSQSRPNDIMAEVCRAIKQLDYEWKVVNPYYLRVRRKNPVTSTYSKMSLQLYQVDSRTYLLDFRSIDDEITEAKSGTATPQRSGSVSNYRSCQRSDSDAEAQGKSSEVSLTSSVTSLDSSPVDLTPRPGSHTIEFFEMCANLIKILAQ
T3 sequence (Q56UN5 whole entry): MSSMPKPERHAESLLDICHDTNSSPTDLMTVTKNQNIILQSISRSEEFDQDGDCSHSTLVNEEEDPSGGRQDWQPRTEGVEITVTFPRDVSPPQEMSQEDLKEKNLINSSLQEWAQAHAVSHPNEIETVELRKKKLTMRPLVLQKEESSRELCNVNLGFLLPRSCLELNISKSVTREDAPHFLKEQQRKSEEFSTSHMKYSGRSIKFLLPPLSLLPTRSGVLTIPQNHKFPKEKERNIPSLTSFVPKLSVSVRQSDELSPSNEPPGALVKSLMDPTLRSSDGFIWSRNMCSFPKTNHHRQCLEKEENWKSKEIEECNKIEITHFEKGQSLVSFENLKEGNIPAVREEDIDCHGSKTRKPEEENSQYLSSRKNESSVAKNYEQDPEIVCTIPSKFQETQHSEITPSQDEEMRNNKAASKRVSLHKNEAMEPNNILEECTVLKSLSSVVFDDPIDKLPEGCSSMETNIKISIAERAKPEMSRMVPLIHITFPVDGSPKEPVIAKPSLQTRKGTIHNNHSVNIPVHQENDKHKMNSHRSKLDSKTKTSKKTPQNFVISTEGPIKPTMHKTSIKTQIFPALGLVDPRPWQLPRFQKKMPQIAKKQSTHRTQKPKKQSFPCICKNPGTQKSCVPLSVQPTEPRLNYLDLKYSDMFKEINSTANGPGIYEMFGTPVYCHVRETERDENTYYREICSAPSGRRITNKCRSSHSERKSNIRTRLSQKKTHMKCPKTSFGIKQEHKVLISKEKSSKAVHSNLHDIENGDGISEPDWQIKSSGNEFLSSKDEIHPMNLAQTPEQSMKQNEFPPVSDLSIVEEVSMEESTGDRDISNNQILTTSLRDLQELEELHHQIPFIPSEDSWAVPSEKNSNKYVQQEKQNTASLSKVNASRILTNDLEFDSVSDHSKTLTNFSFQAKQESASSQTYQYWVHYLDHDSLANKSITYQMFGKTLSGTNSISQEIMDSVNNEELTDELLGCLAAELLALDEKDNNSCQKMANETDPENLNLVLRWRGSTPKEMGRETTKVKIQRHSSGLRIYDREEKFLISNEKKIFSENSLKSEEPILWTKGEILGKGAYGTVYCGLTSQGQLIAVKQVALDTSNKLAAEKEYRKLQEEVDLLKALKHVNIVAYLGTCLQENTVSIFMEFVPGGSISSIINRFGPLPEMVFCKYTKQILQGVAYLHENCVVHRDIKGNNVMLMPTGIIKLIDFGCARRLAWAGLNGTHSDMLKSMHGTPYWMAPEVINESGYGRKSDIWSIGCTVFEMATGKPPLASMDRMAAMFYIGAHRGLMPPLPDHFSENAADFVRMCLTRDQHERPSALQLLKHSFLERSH
T24 sequence (Q16584 whole entry): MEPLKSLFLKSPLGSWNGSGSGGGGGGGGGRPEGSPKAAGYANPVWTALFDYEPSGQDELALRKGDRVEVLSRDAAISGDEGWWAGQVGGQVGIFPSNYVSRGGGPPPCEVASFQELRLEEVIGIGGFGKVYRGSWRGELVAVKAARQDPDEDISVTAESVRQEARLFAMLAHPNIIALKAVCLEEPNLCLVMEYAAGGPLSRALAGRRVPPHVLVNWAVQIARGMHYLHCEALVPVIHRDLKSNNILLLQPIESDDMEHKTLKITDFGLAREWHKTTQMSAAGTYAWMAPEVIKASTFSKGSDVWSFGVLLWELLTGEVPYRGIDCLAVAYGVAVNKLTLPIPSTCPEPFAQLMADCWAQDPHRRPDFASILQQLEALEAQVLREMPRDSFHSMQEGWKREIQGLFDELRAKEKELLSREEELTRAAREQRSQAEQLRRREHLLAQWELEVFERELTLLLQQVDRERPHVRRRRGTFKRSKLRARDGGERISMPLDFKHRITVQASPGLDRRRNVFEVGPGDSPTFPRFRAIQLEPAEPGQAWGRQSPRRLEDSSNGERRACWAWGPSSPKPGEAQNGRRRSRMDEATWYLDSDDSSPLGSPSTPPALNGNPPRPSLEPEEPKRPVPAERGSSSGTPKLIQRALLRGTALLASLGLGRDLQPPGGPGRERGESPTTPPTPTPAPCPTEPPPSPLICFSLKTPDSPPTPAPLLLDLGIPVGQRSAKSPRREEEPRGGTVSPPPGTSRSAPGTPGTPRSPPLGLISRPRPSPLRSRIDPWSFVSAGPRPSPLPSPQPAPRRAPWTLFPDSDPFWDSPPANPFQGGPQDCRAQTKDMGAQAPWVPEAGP
T15 sequence (P0C264 whole entry): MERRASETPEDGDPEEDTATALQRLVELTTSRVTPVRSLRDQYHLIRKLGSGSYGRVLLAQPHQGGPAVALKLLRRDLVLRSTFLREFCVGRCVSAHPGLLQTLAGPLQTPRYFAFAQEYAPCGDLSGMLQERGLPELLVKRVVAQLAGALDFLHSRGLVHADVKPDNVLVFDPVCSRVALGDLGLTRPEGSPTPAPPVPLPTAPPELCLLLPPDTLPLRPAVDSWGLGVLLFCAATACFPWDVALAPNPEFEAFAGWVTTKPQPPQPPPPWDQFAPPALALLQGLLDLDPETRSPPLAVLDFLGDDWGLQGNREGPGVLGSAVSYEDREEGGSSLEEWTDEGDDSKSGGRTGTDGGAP
T1 sequence (Q8NFD2 whole entry): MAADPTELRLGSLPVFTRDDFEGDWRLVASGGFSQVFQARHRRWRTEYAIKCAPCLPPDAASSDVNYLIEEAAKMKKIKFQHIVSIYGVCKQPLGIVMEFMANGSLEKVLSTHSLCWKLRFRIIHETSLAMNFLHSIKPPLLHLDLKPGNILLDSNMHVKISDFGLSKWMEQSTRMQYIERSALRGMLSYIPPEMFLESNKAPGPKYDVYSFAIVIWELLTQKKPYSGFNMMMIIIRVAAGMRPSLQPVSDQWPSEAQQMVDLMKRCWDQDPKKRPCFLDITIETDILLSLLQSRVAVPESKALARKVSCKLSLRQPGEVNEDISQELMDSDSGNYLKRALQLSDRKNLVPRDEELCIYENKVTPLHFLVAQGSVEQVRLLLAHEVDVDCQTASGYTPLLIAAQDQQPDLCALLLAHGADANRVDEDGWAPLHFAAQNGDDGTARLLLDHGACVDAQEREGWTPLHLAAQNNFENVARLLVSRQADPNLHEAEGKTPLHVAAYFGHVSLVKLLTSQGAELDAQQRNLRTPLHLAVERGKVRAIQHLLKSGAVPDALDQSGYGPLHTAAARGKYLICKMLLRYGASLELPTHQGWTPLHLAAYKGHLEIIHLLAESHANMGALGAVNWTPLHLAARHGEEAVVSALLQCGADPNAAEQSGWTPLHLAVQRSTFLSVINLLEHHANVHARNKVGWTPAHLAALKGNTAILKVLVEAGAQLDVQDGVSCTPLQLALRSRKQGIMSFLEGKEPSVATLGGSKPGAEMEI
T12 sequence (O14920 whole entry): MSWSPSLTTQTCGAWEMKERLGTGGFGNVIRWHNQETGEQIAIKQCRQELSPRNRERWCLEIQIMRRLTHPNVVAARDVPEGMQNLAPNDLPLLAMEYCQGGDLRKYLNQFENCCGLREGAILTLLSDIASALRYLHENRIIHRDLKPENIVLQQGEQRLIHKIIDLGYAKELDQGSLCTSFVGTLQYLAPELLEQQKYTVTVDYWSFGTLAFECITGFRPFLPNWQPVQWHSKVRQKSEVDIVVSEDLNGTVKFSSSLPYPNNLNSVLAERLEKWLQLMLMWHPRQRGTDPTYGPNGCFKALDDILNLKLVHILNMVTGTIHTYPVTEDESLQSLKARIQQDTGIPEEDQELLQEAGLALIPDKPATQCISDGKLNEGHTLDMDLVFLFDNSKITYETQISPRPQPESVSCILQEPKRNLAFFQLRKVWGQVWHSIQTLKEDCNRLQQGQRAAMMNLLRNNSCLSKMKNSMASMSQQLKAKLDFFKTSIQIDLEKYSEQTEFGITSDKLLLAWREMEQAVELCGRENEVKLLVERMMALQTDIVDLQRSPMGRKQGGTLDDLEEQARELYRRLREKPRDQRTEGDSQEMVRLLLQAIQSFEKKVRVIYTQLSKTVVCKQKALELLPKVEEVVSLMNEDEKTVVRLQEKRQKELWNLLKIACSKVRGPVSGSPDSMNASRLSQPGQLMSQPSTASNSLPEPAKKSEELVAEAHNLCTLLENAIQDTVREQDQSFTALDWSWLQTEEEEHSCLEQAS
T23 sequence (Q9Y6E0 whole entry): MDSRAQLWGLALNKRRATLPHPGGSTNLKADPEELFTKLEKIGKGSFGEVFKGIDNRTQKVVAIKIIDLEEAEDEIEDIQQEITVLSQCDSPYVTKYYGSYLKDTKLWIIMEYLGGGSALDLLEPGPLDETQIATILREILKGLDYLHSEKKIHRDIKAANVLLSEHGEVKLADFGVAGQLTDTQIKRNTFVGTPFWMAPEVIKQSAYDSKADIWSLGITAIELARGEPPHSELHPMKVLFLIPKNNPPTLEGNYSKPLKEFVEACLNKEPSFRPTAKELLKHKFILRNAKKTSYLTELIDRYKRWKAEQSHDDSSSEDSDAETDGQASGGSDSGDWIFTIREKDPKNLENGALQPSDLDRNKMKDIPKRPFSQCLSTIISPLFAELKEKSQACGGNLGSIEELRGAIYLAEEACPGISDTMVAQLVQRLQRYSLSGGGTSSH

For `CC(C)C(=O)N1CCN(c2ccc(NC(=O)c3cc4ccccc4o3)cc2Cl)CC1` [Compound 21], the “Percent Control” value [1] was 100%, the “Percent Control” value [2] was 93% and the “Percent Control” value [3] was 98%. For the same molecule, the “Percent Control” value [4] was 97%, the “Percent Control” value [5] was 100% and the “Percent Control” value [6] was 88%. For the same molecule, the “Percent Control” value [7] was 100%, the “Percent Control” value [8] was 100% and the “Percent Control” value [9] was 100%. The “Percent Control” value [10] was 95%, the “Percent Control” value [11] was 90% and the “Percent Control” value [12] was 98%. The “Percent Control” value [13] was 100%, the “Percent Control” value [14] was 90% and the “Percent Control” value [15] was 79%. For the same molecule, the “Percent Control” value [16] was 98%, the “Percent Control” value [17] was 95% and the “Percent Control” value [18] was 100%. For the same molecule, the “Percent Control” value [19] was 100%, the “Percent Control” value [20] was 100% and the “Percent Control” value [21] was 100%. The “Percent Control” value [22] was 99%, the “Percent Control” value [23] was 84% and the “Percent Control” value [24] was 93%. For the same molecule, the “Percent Control” value [25] was 100% and the “Percent Control” value [26] was 95%.
